# Laboratory results as given in ChEMBL document CHEMBL4265991.
# Activity calls are given as the source filed them. The rule behind the calls is not given here.
# Key:
# [1] = target: Inosine-5'-monophosphate dehydrogenase (Cryptococcus neoformans var. neoformans serotype D (strain JEC21 /ATCC MYA-565) (Filobasidiella neoformans)) (UniProt Q5KP44); test: Inhibition of recombinant Cryptococcus neoformans His-tagged IMPDH expressed in Escherichia coli BL21 (DE3) using IMP as substrate and DTT containing buffer in presence of NAD
# [2] = Selectivity index, ratio of IC50 for recombinant human His-tagged IMPDH2 to IC50 for recombinant Cryptococcus neoformans His-tagged IMPDH
# [3] = Selectivity index, ratio of IC50 for recombinant human His-tagged IMPDH1 to IC50 for recombinant Cryptococcus neoformans His-tagged IMPDH
# Inosine-5'-monophosphate dehydrogenase (Cryptococcus neoformans var. neoformans serotype D (strain JEC21 /ATCC MYA-565) (Filobasidiella neoformans)), sequence (Q5KP44 whole entry, looked up): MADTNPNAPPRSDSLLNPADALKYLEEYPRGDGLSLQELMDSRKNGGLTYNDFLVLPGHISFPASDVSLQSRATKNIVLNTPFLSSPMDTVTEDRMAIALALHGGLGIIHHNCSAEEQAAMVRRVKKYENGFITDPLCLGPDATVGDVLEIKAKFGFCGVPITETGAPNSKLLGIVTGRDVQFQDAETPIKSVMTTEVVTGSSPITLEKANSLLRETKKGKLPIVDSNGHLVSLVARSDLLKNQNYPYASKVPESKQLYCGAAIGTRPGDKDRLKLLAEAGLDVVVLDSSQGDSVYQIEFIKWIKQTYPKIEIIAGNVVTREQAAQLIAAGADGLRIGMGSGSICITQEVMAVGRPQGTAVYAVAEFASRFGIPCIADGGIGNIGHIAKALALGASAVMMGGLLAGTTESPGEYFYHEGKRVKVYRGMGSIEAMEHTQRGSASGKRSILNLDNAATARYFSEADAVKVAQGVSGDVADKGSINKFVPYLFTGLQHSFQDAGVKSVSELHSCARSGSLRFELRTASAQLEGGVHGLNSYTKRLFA
Structure (SMILES),inhibition [1],Ratio IC50 [2],Ratio IC50 [3]
O=S1(=O)C=C(Sc2nnc(-c3ccccc3)o2)c2ccccc21,inactive,–,–
COc1ccc(-c2nnc(SC3=CS(=O)(=O)c4ccccc43)o2)cc1,–,> 30,> 30
COc1ccccc1-c1nnc(SC2=CS(=O)(=O)c3ccccc32)o1,inactive,–,–
COC(=O)c1ccc(-c2nnc(SC3=CS(=O)(=O)c4ccccc43)o2)cc1,–,> 30,> 30
